Measurements from the supplement of paper PMC9663587.

Assays:
[1] = compound: CC(=O)c1c(C)c2cnc(Nc3ccc(N4CCNCC4)cn3)nc2n(C2CCCC2)c1=O; assay: increase in dead-cell fraction, 72 h; higher = more death;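 further: breast cancer cell lines in 384-well plates, stained with Hoechst plus LIVE/DEAD far red dye and imaged, cells above an LDR intensity threshold counted dead, Hoechst-negative corpses included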
[2] = compound: CCN1CCN(Cc2ccc(Nc3ncc(F)c(-c4cc(F)c5nc(C)n(C(C)C)c5c4)n3)nc2)CC1; assay: as above
LEE011/Ribociclib [3] = compound: T1, CN(C)C(=O)c1cc2cnc(Nc3ccc(N4CCNCC4)cn3)nc2n1C1CCCC1 [LEE011/Ribociclib]; assay: as above
Flavopiridol [4] = compound: T2, CN1CC[C@H](c2c(O)cc(O)c3c(=O)cc(-c4ccccc4Cl)oc23)[C@H](O)C1 [Flavopiridol]; assay: as above
BSJ-03-123 = compound: CC(=O)c1c(C)c2cnc(Nc3ccc(N4CCN(CCOCCOCCOCCNC(=O)COc5cccc6c5C(=O)N(C5CCC(=O)NC5=O)C6=O)CC4)cn3)nc2n(C2CCCC2)c1=O [BSJ-03-123]; assay: GR value, 72 h; higher = faster growth (1 = untreated, <0 = killing);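 further: breast cancer and non-malignant breast epithelial lines, nine half-log doses, viable cells counted by Hoechst and LIVE/DEAD dye imaging versus time-zero plates and DMSO controls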
[5] = compound: CC(=O)c1c(C)c2cnc(Nc3ccc(N4CCNCC4)cn3)nc2n(C2CCCC2)c1=O; assay: as above
[6] = compound: CCN1CCN(Cc2ccc(Nc3ncc(F)c(-c4cc(F)c5nc(C)n(C(C)C)c5c4)n3)nc2)CC1; assay: as above
Neratinib/HKI272 = compound: CCOc1cc2ncc(C#N)c(Nc3ccc(OCc4ccccn4)c(Cl)c3)c2cc1NC(=O)/C=C/CN(C)C [Neratinib/HKI272]; assay: as above
[7] = compound: CCc1cnn2c(NCc3ccc[n+]([O-])c3)cc(N3CCCC[C@H]3CCO)nc12; assay: as above
LEE011/Ribociclib [8] = compound: T1, LEE011/Ribociclib; assay: as above
THZ1 = compound: CN(C)C/C=C/C(=O)Nc1ccc(C(=O)Nc2cccc(Nc3ncc(Cl)c(-c4c[nH]c5ccccc45)n3)c2)cc1 [THZ1]; assay: as above
Flavopiridol [9] = compound: T2, Flavopiridol; assay: as above

Cell Line: MDAMB175VII
- increase in dead-cell fraction ([1]; 0.0003162 µM): 0.0035
- increase in dead-cell fraction ([1]; 0.001 µM): 0.0034
- increase in dead-cell fraction ([1]; 0.003162 µM): -0.0018
- increase in dead-cell fraction ([1]; 0.01 µM): 0.0077
- increase in dead-cell fraction ([1]; 0.03162 µM): 0.0116
- increase in dead-cell fraction ([1]; 0.1 µM): 0.0214
- increase in dead-cell fraction ([1]; 0.3162 µM): 0.0115
- increase in dead-cell fraction ([1]; 1 µM): 0.0097
- increase in dead-cell fraction ([1]; 3.162 µM): 0.0212
- increase in dead-cell fraction ([2]; 0.001 µM): -0.0013
- increase in dead-cell fraction ([2]; 0.003162 µM): -0.0015
- increase in dead-cell fraction ([2]; 0.01 µM): 0.0094
- increase in dead-cell fraction ([2]; 0.03162 µM): 0.0188
- increase in dead-cell fraction ([2]; 0.1 µM): 0.0085
- increase in dead-cell fraction ([2]; 0.3162 µM): 0.013
- increase in dead-cell fraction ([2]; 1 µM): 0.0044
- increase in dead-cell fraction ([2]; 3.162 µM): 0.0131
- increase in dead-cell fraction ([2]; 10 µM): 0.0317
- increase in dead-cell fraction (LEE011/Ribociclib [3]; 0.001 µM): 0.0066
- increase in dead-cell fraction (LEE011/Ribociclib [3]; 0.003162 µM): 0.0124
- increase in dead-cell fraction (LEE011/Ribociclib [3]; 0.01 µM): 0.0047
- increase in dead-cell fraction (LEE011/Ribociclib [3]; 0.03162 µM): 0.0118
- increase in dead-cell fraction (LEE011/Ribociclib [3]; 0.1 µM): 0.0182
- increase in dead-cell fraction (LEE011/Ribociclib [3]; 0.3162 µM): 0.0102
- increase in dead-cell fraction (LEE011/Ribociclib [3]; 1 µM): 0.0154
- increase in dead-cell fraction (LEE011/Ribociclib [3]; 3.162 µM): 0.0181
- increase in dead-cell fraction (LEE011/Ribociclib [3]; 10 µM): 0.0148
- increase in dead-cell fraction (Flavopiridol [4]; 0.0001 µM): -0.0018
- increase in dead-cell fraction (Flavopiridol [4]; 0.0003162 µM): -0.0019
- increase in dead-cell fraction (Flavopiridol [4]; 0.001 µM): 0.0003
- increase in dead-cell fraction (Flavopiridol [4]; 0.003162 µM): 0.0018
- increase in dead-cell fraction (Flavopiridol [4]; 0.01 µM): 0.0067
- increase in dead-cell fraction (Flavopiridol [4]; 0.03162 µM): -0.0026
- increase in dead-cell fraction (Flavopiridol [4]; 0.1 µM): 0.0081
- increase in dead-cell fraction (Flavopiridol [4]; 0.3162 µM): 0.0294
- increase in dead-cell fraction (Flavopiridol [4]; 1 µM): 0.0685
- GR value (BSJ-03-123; 0.001 µM): 0.829 GR
- GR value (BSJ-03-123; 0.003162 µM): 0.79 GR
- GR value (BSJ-03-123; 0.01 µM): 0.713 GR
- GR value (BSJ-03-123; 0.03162 µM): 0.688 GR
- GR value (BSJ-03-123; 0.1 µM): 0.734 GR
- GR value (BSJ-03-123; 0.3162 µM): 0.573 GR
- GR value (BSJ-03-123; 1 µM): 0.378 GR
- GR value (BSJ-03-123; 3.162 µM): 0.262 GR
- GR value (BSJ-03-123; 10 µM): 0.0206 GR
- GR value ([5]; 0.0003162 µM): 0.695 GR
- GR value ([5]; 0.001 µM): 0.582 GR
- GR value ([5]; 0.003162 µM): 0.689 GR
- GR value ([5]; 0.01 µM): 0.453 GR
- GR value ([5]; 0.03162 µM): 0.156 GR
- GR value ([5]; 0.1 µM): -0.0684 GR
- GR value ([5]; 0.3162 µM): -0.0381 GR
- GR value ([5]; 1 µM): -0.0455 GR
- GR value ([5]; 3.162 µM): -0.158 GR
- GR value ([6]; 0.001 µM): 0.725 GR
- GR value ([6]; 0.003162 µM): 0.505 GR
- GR value ([6]; 0.01 µM): 0.0712 GR
- GR value ([6]; 0.03162 µM): 0.105 GR
- GR value ([6]; 0.1 µM): 0.0173 GR
- GR value ([6]; 0.3162 µM): 0.0287 GR
- GR value ([6]; 1 µM): -0.0111 GR
- GR value ([6]; 3.162 µM): -0.0725 GR
- GR value ([6]; 10 µM): -0.173 GR
- GR value (Neratinib/HKI272; 0.0003162 µM): 0.753 GR
- GR value (Neratinib/HKI272; 0.001 µM): 0.53 GR
- GR value (Neratinib/HKI272; 0.003162 µM): 0.138 GR
- GR value (Neratinib/HKI272; 0.01 µM): -0.551 GR
- GR value (Neratinib/HKI272; 0.03162 µM): -0.848 GR
- GR value (Neratinib/HKI272; 0.1 µM): -0.905 GR
- GR value (Neratinib/HKI272; 0.3162 µM): -0.932 GR
- GR value (Neratinib/HKI272; 1 µM): -0.949 GR
- GR value (Neratinib/HKI272; 3.162 µM): -0.983 GR
- GR value ([7]; 0.0001 µM): 1.09 GR
- GR value ([7]; 0.0003162 µM): 1.07 GR
- GR value ([7]; 0.001 µM): 1.14 GR
- GR value ([7]; 0.003162 µM): 1.23 GR
- GR value ([7]; 0.01 µM): 0.742 GR
- GR value ([7]; 0.03162 µM): -0.651 GR
- GR value ([7]; 0.1 µM): -0.516 GR
- GR value ([7]; 0.3162 µM): -0.49 GR
- GR value ([7]; 1 µM): -0.497 GR
- GR value (LEE011/Ribociclib [8]; 0.001 µM): 0.4 GR
- GR value (LEE011/Ribociclib [8]; 0.003162 µM): 0.267 GR
- GR value (LEE011/Ribociclib [8]; 0.01 µM): 0.288 GR
- GR value (LEE011/Ribociclib [8]; 0.03162 µM): 0.15 GR
- GR value (LEE011/Ribociclib [8]; 0.1 µM): 0.195 GR
- GR value (LEE011/Ribociclib [8]; 0.3162 µM): 0.0606 GR
- GR value (LEE011/Ribociclib [8]; 1 µM): 0.0351 GR
- GR value (LEE011/Ribociclib [8]; 3.162 µM): 0.19 GR
- GR value (LEE011/Ribociclib [8]; 10 µM): 0.192 GR
- GR value (THZ1; 0.0001 µM): 0.829 GR
- GR value (THZ1; 0.0003162 µM): 1.05 GR
- GR value (THZ1; 0.001 µM): 1.01 GR
- GR value (THZ1; 0.003162 µM): 0.843 GR
- GR value (THZ1; 0.01 µM): 0.736 GR
- GR value (THZ1; 0.03162 µM): 0.515 GR
- GR value (THZ1; 0.1 µM): -0.0075 GR
- GR value (THZ1; 0.3162 µM): -0.159 GR
- GR value (THZ1; 1 µM): -0.44 GR
- GR value (Flavopiridol [9]; 0.0001 µM): 0.962 GR
- GR value (Flavopiridol [9]; 0.0003162 µM): 1 GR
- GR value (Flavopiridol [9]; 0.001 µM): 0.765 GR
- GR value (Flavopiridol [9]; 0.003162 µM): 0.721 GR
- GR value (Flavopiridol [9]; 0.01 µM): 0.675 GR
- GR value (Flavopiridol [9]; 0.03162 µM): 0.748 GR
- GR value (Flavopiridol [9]; 0.1 µM): 0.442 GR
- GR value (Flavopiridol [9]; 0.3162 µM): -0.175 GR
- GR value (Flavopiridol [9]; 1 µM): -0.302 GR
